# Experimental data: patent publication US20230278972A1, “SUBSTITUTED HALOALKYL SULFONANILIDE HERBICIDES” (FMC Corporation, priority 2020, published 2023)
# Assays:
# Format in all cases: in vivo
# [1] = system: blackgrass (Alopecurus myosuroides); test: Test A1 preemergence, blackgrass
# In short: (§1)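 Both timings started from seed in a loam-sand blend. Preemergence pots got a directed soil application immediately; postemergence pots were sprayed when seedlings had one or two leaves and stood 2–10 cm. Each compound was prepared in a non-phytotoxic solvent plus surfactant.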
# corn (Zea mays) [2] = test: Test A1 preemergence, corn
# In short: (§2)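 Pre: seeds in loam/sand blend, directed soil spray. Post: potted plants, same soil, 2–10 cm, 1–2 leaf stage. Chemicals in non-phytotoxic solvent + surfactant for both.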
# [3] = system: Foxtail, Giant (giant foxtail, Setaria faberi); test: Test A1 preemergence, Foxtail, Giant
# In short: as §1
# [4] = system: goosegrass (Eleusine indica); test: Test A1 preemergence, goosegrass
# In short: as §1
# kochia (Bassia scoparia) [5] = test: Test A1 preemergence, kochia
# In short: as §1
# [6] = system: Oat, Wild (wild oat, Avena fatua); test: Test A1 preemergence, Oat, Wild
# In short: as §1
# [7] = system: Pigweed, Palmer (palmer amaranth, palmer pigweed, Amaranthus palmeri); test: Test A1 preemergence, Pigweed, Palmer
# In short: as §1
# [8] = system: ragweed (common ragweed, Ambrosia artemisiifolia); test: Test A1 preemergence, ragweed
# In short: as §1
# [9] = system: Ryegrass, Italian (Italian ryegrass, Lolium multiflorum); test: Test A1 preemergence, Ryegrass, Italian
# In short: as §1
# soybean (Glycine max) [10] = test: Test A1 preemergence, soybean
# In short: as §1
# [11] = system: wheat (Triticum aestivum); test: Test A1 preemergence, wheat
# In short: as §1
# [12] = system: blackgrass (Alopecurus myosuroides); test: Test A1 postemergence, blackgrass; conditions: Postemergence, 0 to 100 scale (0 no effect, 100 complete control)
# In short: (§3)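 Plants were grown in a loam soil/sand blend, with test chemicals formulated in a non-phytotoxic solvent mixture containing surfactant. Preemergence treatment (corn) was a directed soil spray at planting. Postemergence treatment was applied to plants 2 to 10 cm tall at the one- to two-leaf stage.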
# corn (Zea mays) [13] = test: Test A1 postemergence, corn; conditions: Postemergence
# In short: as §1
# [14] = system: Foxtail, Giant (giant foxtail, Setaria faberi); test: Test A1 postemergence, Foxtail, Giant; conditions: Postemergence
# In short: as §3
# [15] = system: goosegrass (Eleusine indica); test: Test A1 postemergence, goosegrass; conditions: Postemergence
# In short: as §3
# kochia (Bassia scoparia) [16] = test: Test A1 postemergence, kochia; conditions: Postemergence
# In short: as §3
# [17] = system: Oat, Wild (wild oat, Avena fatua); test: Test A1 postemergence, Oat, Wild; conditions: Postemergence
# In short: as §2
# [18] = system: Pigweed, Palmer (palmer amaranth, palmer pigweed, Amaranthus palmeri); test: Test A1 postemergence, Pigweed, Palmer; conditions: Postemergence
# In short: as §2
# [19] = system: ragweed (common ragweed, Ambrosia artemisiifolia); test: Test A1 postemergence, ragweed; conditions: Postemergence
# In short: as §2
# [20] = system: Ryegrass, Italian (Italian ryegrass, Lolium multiflorum); test: Test A1 postemergence, Ryegrass, Italian; conditions: Postemergence
# In short: as §3
# soybean (Glycine max) [21] = test: Test A1 postemergence, soybean; conditions: Postemergence
# In short: as §3
# [22] = system: wheat (Triticum aestivum); test: Test A1 postemergence, wheat; conditions: Postemergence
# In short: as §3
# [23] = system: galium (catchweed bedstraw, Galium aparine); test: Test A1 postemergence, galium; conditions: Postemergence
# In short: as §3
# [24] = system: horseweed (Erigeron canadensis); test: Test A1 postemergence, horseweed; conditions: Postemergence
# Source text: Seeds of plant species selected from, blackgrass (Alopecurus myosuroides), corn (Zea mays), Foxtail, Giant (giant foxtail, Setaria faberi), goosegrass (Eleusine indica), kochia (Bassia scoparia), Oat, Wild (wild oat, Avena fatua), Pigweed, Palmer (palmer amaranth, palmer pigweed, Amaranthus palmeri), ragweed (common ragweed, Ambrosia artemisiifolia), Ryegrass, Italian (Italian ryegrass, Lolium multiflorum), soybean (Glycine max), and wheat (Triticum aestivum) were planted into a blend of loam soil and sand and treated preemergence with a directed soil spray using test chemicals formulated in a non-phytotoxic solvent mixture which included a surfactant. At the same time, plants selected from these crop and weed species and also galium (catchweed bedstraw, Galium aparine) and horseweed (Erigeron canadensis) were planted in pots containing the same blend of loam soil and sand and treated with postemergence applications of test chemicals formulated in the same manner. Plants ranged in height from 2 to 10 cm and were in the one- to two-leaf stage for the postemergence treatment. […] A dash (-) response means no test result.
# [25] = system: barnyardgrass (Echinochloa crus-galli); test: Test B1 flooded paddy test, barnyardgrass; conditions: 250 g ai/ha, Flood, applied to paddy water, 2-leaf stage, visually evaluated after 10 to 14 days
# Source text: (§4) A dash (-) response means no test result.
# [26] = system: ducksalad (Heteranthera limosa); test: Test B1 flooded paddy test, ducksalad; conditions: 250 g ai/ha, Flood, applied to paddy water, 2-leaf stage, visually evaluated after 10 to 14 days
# Source text: as §4
# rice (Oryza sativa) = test: Test B1 flooded paddy test, rice; conditions: 250 g ai/ha, Flood, applied to paddy water, 2-leaf stage, visually evaluated after 10 to 14 days
# Source text: as §4
# [27] = 31 g ai/ha, 0 to 100 scale (0 no effect, 100 complete control)
# [28] = 125 g ai/ha, 0 to 100 scale, 0 no effect, 100 complete control
# [29] = 31 g ai/ha, 0 to 100 scale (0 no effect, 100 complete control), 10 days
smiles,measurement,setting,value
Cc1c(NS(=O)(=O)C(F)(F)F)cc(C(=O)N2CCC(F)CC2)c(C)c1C [Compound 358],"Plant response rating, Blackgrass",[1]; [27],0
same,"Plant response rating, Blackgrass",[1]; [28],10
same,"Plant response rating, Corn",corn (Zea mays) [2]; [27],0
same,"Plant response rating, Corn",corn (Zea mays) [2]; [28],50
same,"Plant response rating, Foxtail, Giant",[3]; [27],80
same,"Plant response rating, Foxtail, Giant",[3]; [28],100
same,"Plant response rating, Goosegrass",[4]; [27],30
same,"Plant response rating, Goosegrass",[4]; [28],100
same,"Plant response rating, Kochia",kochia (Bassia scoparia) [5]; [27],20
same,"Plant response rating, Kochia",kochia (Bassia scoparia) [5]; [28],30
same,"Plant response rating, Oat, Wild",[6]; [27],0
same,"Plant response rating, Oat, Wild",[6]; [28],10
same,"Plant response rating, Pigweed, Palmer",[7]; [27],90
same,"Plant response rating, Pigweed, Palmer",[7]; [28],90
same,"Plant response rating, Ragweed",[8]; [27],40
same,"Plant response rating, Ragweed",[8]; [28],80
same,"Plant response rating, Ryegrass, Italian",[9]; [27],0
same,"Plant response rating, Ryegrass, Italian",[9]; [28],30
same,"Plant response rating, Soybean",soybean (Glycine max) [10]; [27],50
same,"Plant response rating, Soybean",soybean (Glycine max) [10]; [28],70
same,"Plant response rating, Wheat",[11]; [27],0
same,"Plant response rating, Wheat",[11]; [28],30
same,"Plant response rating, Blackgrass","[12]; 31 g ai/ha, 10 days",0
same,"Plant response rating, Blackgrass",[12]; 125 g ai/ha,0
same,"Plant response rating, Corn",corn (Zea mays) [13]; [29],0
same,"Plant response rating, Corn","corn (Zea mays) [13]; 125 g ai/ha, 0 to 100 scale",0
same,"Plant response rating, Foxtail, Giant",[14]; [29],0
same,"Plant response rating, Foxtail, Giant","[14]; 125 g ai/ha, 0 to 100 scale",40
same,"Plant response rating, Goosegrass",[15]; [29],0
same,"Plant response rating, Goosegrass","[15]; 125 g ai/ha, 0 to 100 scale",80
same,"Plant response rating, Kochia",kochia (Bassia scoparia) [16]; [29],0
same,"Plant response rating, Kochia","kochia (Bassia scoparia) [16]; 125 g ai/ha, 0 to 100 scale",70
same,"Plant response rating, Oat, Wild",[17]; [29],0
same,"Plant response rating, Oat, Wild","[17]; 125 g ai/ha, 0 to 100 scale",0
same,"Plant response rating, Pigweed, Palmer",[18]; [29],0
same,"Plant response rating, Pigweed, Palmer","[18]; 125 g ai/ha, 0 to 100 scale",40
same,"Plant response rating, Ragweed",[19]; [29],80
same,"Plant response rating, Ragweed","[19]; 125 g ai/ha, 0 to 100 scale",80
same,"Plant response rating, Ryegrass, Italian",[20]; [29],20
same,"Plant response rating, Ryegrass, Italian","[20]; 125 g ai/ha, 0 to 100 scale",20
same,"Plant response rating, Soybean",soybean (Glycine max) [21]; [29],50
same,"Plant response rating, Soybean","soybean (Glycine max) [21]; 125 g ai/ha, 0 to 100 scale",70
same,"Plant response rating, Wheat",[22]; [29],0
same,"Plant response rating, Wheat","[22]; 125 g ai/ha, 0 to 100 scale",0
same,"Plant response rating, Galium",[23]; [29],70
same,"Plant response rating, Galium","[23]; 125 g ai/ha, 0 to 100 scale",100
same,"Plant response rating, Horseweed",[24]; [29],60
same,"Plant response rating, Horseweed","[24]; 125 g ai/ha, 0 to 100 scale",70
same,"Plant response rating, Barnyardgrass (0 to 100 scale, 0 is no effect, 100 is complete control)",[25],50
same,"Plant response rating, Ducksalad (0 to 100 scale, 0 is no effect, 100 is complete control)",[26],0
same,"Plant response rating, Rice (0 to 100 scale, 0 is no effect, 100 is complete control)",rice (Oryza sativa),10
Cc1cc(F)c(C2=NOC3CCCC23)cc1NS(=O)(=O)C(F)(F)F (stereo not drawn) [Compound 310],"Plant response rating, Blackgrass",[1]; [27],0
same,"Plant response rating, Blackgrass",[1]; [28],0
same,"Plant response rating, Corn",corn (Zea mays) [2]; [27],0
same,"Plant response rating, Corn",corn (Zea mays) [2]; [28],0
same,"Plant response rating, Foxtail, Giant",[3]; [27],0
same,"Plant response rating, Foxtail, Giant",[3]; [28],20
same,"Plant response rating, Goosegrass",[4]; [27],0
same,"Plant response rating, Goosegrass",[4]; [28],0
same,"Plant response rating, Kochia",kochia (Bassia scoparia) [5]; [27],0
same,"Plant response rating, Kochia",kochia (Bassia scoparia) [5]; [28],40
same,"Plant response rating, Oat, Wild",[6]; [27],0
same,"Plant response rating, Oat, Wild",[6]; [28],0
same,"Plant response rating, Pigweed, Palmer",[7]; [27],0
same,"Plant response rating, Pigweed, Palmer",[7]; [28],70
same,"Plant response rating, Ragweed",[8]; [27],0
same,"Plant response rating, Ragweed",[8]; [28],20
same,"Plant response rating, Ryegrass, Italian",[9]; [27],40
same,"Plant response rating, Ryegrass, Italian",[9]; [28],50
same,"Plant response rating, Soybean",soybean (Glycine max) [10]; [27],0
same,"Plant response rating, Soybean",soybean (Glycine max) [10]; [28],0
same,"Plant response rating, Wheat",[11]; [27],0
same,"Plant response rating, Wheat",[11]; [28],0
same,"Plant response rating, Blackgrass","[12]; 31 g ai/ha, 10 days",0
same,"Plant response rating, Blackgrass",[12]; 125 g ai/ha,0
same,"Plant response rating, Corn",corn (Zea mays) [13]; [29],0
same,"Plant response rating, Corn","corn (Zea mays) [13]; 125 g ai/ha, 0 to 100 scale",0
same,"Plant response rating, Foxtail, Giant",[14]; [29],0
same,"Plant response rating, Foxtail, Giant","[14]; 125 g ai/ha, 0 to 100 scale",0
same,"Plant response rating, Goosegrass",[15]; [29],0
same,"Plant response rating, Goosegrass","[15]; 125 g ai/ha, 0 to 100 scale",0
same,"Plant response rating, Kochia",kochia (Bassia scoparia) [16]; [29],0
same,"Plant response rating, Kochia","kochia (Bassia scoparia) [16]; 125 g ai/ha, 0 to 100 scale",20
same,"Plant response rating, Oat, Wild",[17]; [29],0
same,"Plant response rating, Oat, Wild","[17]; 125 g ai/ha, 0 to 100 scale",10
same,"Plant response rating, Pigweed, Palmer",[18]; [29],0
same,"Plant response rating, Pigweed, Palmer","[18]; 125 g ai/ha, 0 to 100 scale",0
same,"Plant response rating, Ragweed",[19]; [29],0
same,"Plant response rating, Ragweed","[19]; 125 g ai/ha, 0 to 100 scale",30
same,"Plant response rating, Ryegrass, Italian",[20]; [29],20
same,"Plant response rating, Ryegrass, Italian","[20]; 125 g ai/ha, 0 to 100 scale",30
same,"Plant response rating, Soybean",soybean (Glycine max) [21]; [29],20
same,"Plant response rating, Soybean","soybean (Glycine max) [21]; 125 g ai/ha, 0 to 100 scale",30
same,"Plant response rating, Wheat",[22]; [29],0
same,"Plant response rating, Wheat","[22]; 125 g ai/ha, 0 to 100 scale",20
same,"Plant response rating, Galium",[23]; [29],0
same,"Plant response rating, Galium","[23]; 125 g ai/ha, 0 to 100 scale",0
same,"Plant response rating, Horseweed",[24]; [29],10
same,"Plant response rating, Horseweed","[24]; 125 g ai/ha, 0 to 100 scale",30
same,"Plant response rating, Barnyardgrass (0 to 100 scale, 0 is no effect, 100 is complete control)",[25],0
same,"Plant response rating, Ducksalad (0 to 100 scale, 0 is no effect, 100 is complete control)",[26],0
same,"Plant response rating, Rice (0 to 100 scale, 0 is no effect, 100 is complete control)",rice (Oryza sativa),0
